Calls of active or inactive are those of the source. The rule behind the calls is not given here.
What was measured:
[1] = system: SK-OV-3; test: Downregulation of BDNF-induced MMP2 mRNA expression in human SKOV3 cells after 24 hrs by qRT-PCR analysis; type: functional, cell-based
[2] = system: SK-OV-3; test: Antiproliferative activity against human SKOV3 cells at 100 uM after 24 hrs by CCK-8 assay; type: functional, cell-based
[3] = system: SK-OV-3; test: Inhibition of BDNF-induced invasion in human SKOV3 cells after 24 hrs in by matrigel invasion assay; type: functional, cell-based
[4] = system: SK-OV-3; test: Antiproliferative activity against human SKOV3 cells at 5 uM after 24 hrs by CCK-8 assay; type: functional
[5] = system: SK-OV-3; test: Antiproliferative activity against human SKOV3 cells at 75 uM after 24 hrs by CCK-8 assay; type: functional
[6] = system: SK-OV-3; test: Antiproliferative activity against human SKOV3 cells at 50 uM after 24 hrs by CCK-8 assay; type: functional
[7] = molecular target: RAC-alpha serine/threonine-protein kinase (Homo sapiens) (UniProt P31749); test: Inhibition of BDNF-induced AKT phosphorylation in human SKOV3 cells after 24 hrs by Western blot analysis; type: cell-based
[8] = system: SK-OV-3; test: Antiproliferative activity against human SKOV3 cells at 10 uM after 24 hrs by CCK-8 assay; type: functional
[9] = organism: Homo sapiens; test: Inhibition of BDNF-induced NFkappaB nuclear translocation in human SKOV3 cells at 50 to 75 uM after 24 hrs by Western blot analysis; type: cell-based
[10] = system: SK-OV-3; test: Antimigratory activity against human SKOV3 cells assessed as inhibition of BDNF-induced cell migration after 24 hrs by scratch wound healing assay; type: functional, cell-based
[11] = system: SK-OV-3; test: Downregulation of BDNF-induced MMP9 mRNA expression in human SKOV3 cells after 24 hrs by qRT-PCR analysis; type: functional, cell-based
[12] = system: SK-OV-3; test: Antiproliferative activity against human SKOV3 cells at 200 uM after 24 hrs by CCK-8 assay; type: functional, cell-based
[13] = system: SK-OV-3; test: Inhibition of BDNF-induced invasion in human SKOV3 cells at 20 uM after 24 hrs in by matrigel invasion assay; type: functional, cell-based
[14] = system: SK-OV-3; test: Antimigratory activity against human SKOV3 cells assessed as inhibition of BDNF-induced cell migration at 20 uM after 24 hrs by scratch wound healing assay; type: functional, cell-based

Sequence of RAC-alpha serine/threonine-protein kinase (Homo sapiens) (P31749 whole entry): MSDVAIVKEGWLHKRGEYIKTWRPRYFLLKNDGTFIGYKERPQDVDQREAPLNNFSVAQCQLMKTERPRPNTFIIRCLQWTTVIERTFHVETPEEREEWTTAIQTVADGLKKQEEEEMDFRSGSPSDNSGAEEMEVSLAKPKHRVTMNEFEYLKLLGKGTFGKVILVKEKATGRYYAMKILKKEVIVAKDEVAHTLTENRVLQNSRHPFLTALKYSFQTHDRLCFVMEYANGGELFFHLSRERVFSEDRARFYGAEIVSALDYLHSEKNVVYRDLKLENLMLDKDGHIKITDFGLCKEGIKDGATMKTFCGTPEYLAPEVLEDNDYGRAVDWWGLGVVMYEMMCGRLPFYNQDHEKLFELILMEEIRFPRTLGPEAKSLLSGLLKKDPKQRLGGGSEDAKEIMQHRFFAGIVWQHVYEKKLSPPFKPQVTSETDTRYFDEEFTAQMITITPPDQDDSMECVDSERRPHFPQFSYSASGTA

Oc1cc(O)c2cc(O)c(-c3cc(O)c(O)c(O)c3)[o+]c2c1.[Cl-] [DELPHINIDIN CHLORIDE]
Activity [1]: Dose-dependent effect
Activity [2]: Active
inhibition [3]: Dose-dependent effect
Activity [4]: >98%
Activity [5]: >98%
Activity [6]: >98%
inhibition [7]: Dose-dependent effect
Activity [8]: >98%
inhibition [9]: Active
Activity [10]: Dose-dependent effect
Activity [11]: Dose-dependent effect
Activity [12]: Active

O=c1cc(N2CCOCC2)oc2c(-c3ccccc3)cccc12
inhibition [13]: Active
inhibition [7]: Dose-dependent effect
inhibition [14]: Active

— ChEMBL document CHEMBL4184159, “Delphinidin inhibits BDNF-induced migration and invasion in SKOV3 ovarian cancer cells” (2017)
